Reference: patent US8288379B2, “Thia-triaza-cyclopentazulenes” (Boehringer Ingelheim International GmbH, priority 2009, dated 2012)

Molecular target: T1, FRAP1 (mTOR) kinase (Homo sapiens, UniProt P42345)
T1 construct: purchased Invitrogen PV4753
Test: Inhibition of mTOR-induced p-4E-BP1 phosphorylation (TR-FRET mTOR Activity Kit; Invitrogen)
Format: biochemical
Conditions: 400 nM GFP-4E-BP1 substrate, ~150 ng/mL mTOR, one hour at room temperature
From the text: Inhibition of mTOR-Induced p-4E-BP1 Phosphorylation (TR-FRET mTOR Activity Kit; Invitrogen)
• GFP-4E-BP1 substrate; Invitrogen order no. PV4759 • Lanthascreen Tb-anti-p4E-BP1 (pThr46) Antibody Kit; Invitrogen order no. PV4758 • FRAP1 (mTOR) kinase; Invitrogen order no. […] Preparation of Reagents: Note: Thaw and keep mTOR, the substrate, ATP, and the antibody on ice prior to making working dilutions. Working dilutions of these components can be kept at room temperature for short periods of time the day of use. 1. Add 2 ml of 5× Assay Buffer to 8 ml water to prepare 10 ml of 1× Assay Buffer. Note: The concentration of 1× Assay Buffer is 50 mM HEPES pH 7.5, 0.01% Polysorbate 20, 1 mM EGTA, and 10 mM MnCl2. 2. Prepare Antibody/EDTA Solution by first adding 2.75 n1 of Tb-anti p4E-BP1 Antibody to 2397 n1 of LanthaScreen™ TR-FRET Dilution Buffer. Then, add 100 n1 of 0.5 M EDTA. 3. Prepare 4× Substrate/Enzyme Solution by first adding 72 n1 of GFP-4E-BP1 (22 nM) to 926 n1 of 1× Assay Buffer. Then, add 1.6 n1 of mTOR (0.45 mg/mL). 4. Prepare ATP Solution by adding 3.2 n1 of 10 mM ATP to 1997 n1 of 1× Assay Buffer. Serial Dilution of Inhibitors (16 Point Curve): Note: It is recommended that inhibitors be serially diluted in DMSO, then diluted to a 4× working concentration with 1× Assay Buffer. The below procedure describes dilution of compounds in a 96-well format prior to transfer to a 384-well format for kinase assays. This procedure calls for dilution of the compounds in 2 adjacent columns of a 96-well plate, which upon transfer to a single column of a 384-well plate with an 8-channel pipette will align the samples in order of concentration. 1. Dispense 40 n1 of DMSO to two adjacent columns of a 96 well plate per compound (e.g. columns 1 and 2). 2. Add 10 n1 of inhibitor stock (10 mM) to the first well of the first column (A1) and mix. 3. Remove 10 n1 from A1 and transfer to the adjacent well in the next column (B1) and mix. 4. Remove 10 n1 from B1 and transfer to the next well in the first column (B2) and mix. 5. Repeat this dilution pattern through well H1 and leave the last well (H2) as DMSO only. 6. Remove 4 n1 of diluted compounds and add to 96 n1 of 1× Assay Buffer in a 96-well plate making 4× compound dilutions. Kinase Reaction: 1. Add 2.5 μl of 4× compound dilutions from the first column of the 96-well plate to every other well of column 1 of a 384-well plate with an 8-channel pipette. Repeat for columns 2 and 3. 2. Add 2.5 n1 of 4× compound dilutions from the second column of the 96-well plate to the empty wells of column 1 of the 384-well plate with an 8-channel pipette. Repeat for columns 2 and 3. Note: This procedure aligns the compound dilutions in order of concentration. 3. Add 2.5 n1 of 4× Enzyme/Substrate Solution to all columns 1-6. 4. Preincubate for 30 min. at RT (shaker). 5. Add 5 n1 of ATP Solution to all wells to start reactions. 6. Shake the assay plate on a plate shaker for 30 seconds. 7. Incubate the assay plate for one hour at room temperature (20-25° C.). Stop Step and Fluorescence Detection: 1. Add 10 n1 of Antibody/EDTA Solution to each well in columns 1-9. 2. Shake the assay plate on a plate shaker for 30 seconds. 3. Incubate the assay plate for one hour at room temperature (20-25° C.). 4. Measure the GFP (FRET) and terbium (reference) emission signals on a fluorescence plate reader (e.g. Perkin Elmer Envision). Data Analysis: 1. Calculate the emission ratio for each sample by dividing the GFP (FRET) signal by the terbium (reference) signal. 2. Plot the concentration of each compound versus the emission ratio. Determine the concentration of compound required to reach 50% of the maximum signal (IC50). Determination of IC50 values can be obtained by curve fitting (sigmoidal dose response, variable slope) using Prism software from GraphPad). Inhibition of Proliferation: CyQuant PC-3 Description: […]

T1 sequence (P42345 1360-2549 limits assumed): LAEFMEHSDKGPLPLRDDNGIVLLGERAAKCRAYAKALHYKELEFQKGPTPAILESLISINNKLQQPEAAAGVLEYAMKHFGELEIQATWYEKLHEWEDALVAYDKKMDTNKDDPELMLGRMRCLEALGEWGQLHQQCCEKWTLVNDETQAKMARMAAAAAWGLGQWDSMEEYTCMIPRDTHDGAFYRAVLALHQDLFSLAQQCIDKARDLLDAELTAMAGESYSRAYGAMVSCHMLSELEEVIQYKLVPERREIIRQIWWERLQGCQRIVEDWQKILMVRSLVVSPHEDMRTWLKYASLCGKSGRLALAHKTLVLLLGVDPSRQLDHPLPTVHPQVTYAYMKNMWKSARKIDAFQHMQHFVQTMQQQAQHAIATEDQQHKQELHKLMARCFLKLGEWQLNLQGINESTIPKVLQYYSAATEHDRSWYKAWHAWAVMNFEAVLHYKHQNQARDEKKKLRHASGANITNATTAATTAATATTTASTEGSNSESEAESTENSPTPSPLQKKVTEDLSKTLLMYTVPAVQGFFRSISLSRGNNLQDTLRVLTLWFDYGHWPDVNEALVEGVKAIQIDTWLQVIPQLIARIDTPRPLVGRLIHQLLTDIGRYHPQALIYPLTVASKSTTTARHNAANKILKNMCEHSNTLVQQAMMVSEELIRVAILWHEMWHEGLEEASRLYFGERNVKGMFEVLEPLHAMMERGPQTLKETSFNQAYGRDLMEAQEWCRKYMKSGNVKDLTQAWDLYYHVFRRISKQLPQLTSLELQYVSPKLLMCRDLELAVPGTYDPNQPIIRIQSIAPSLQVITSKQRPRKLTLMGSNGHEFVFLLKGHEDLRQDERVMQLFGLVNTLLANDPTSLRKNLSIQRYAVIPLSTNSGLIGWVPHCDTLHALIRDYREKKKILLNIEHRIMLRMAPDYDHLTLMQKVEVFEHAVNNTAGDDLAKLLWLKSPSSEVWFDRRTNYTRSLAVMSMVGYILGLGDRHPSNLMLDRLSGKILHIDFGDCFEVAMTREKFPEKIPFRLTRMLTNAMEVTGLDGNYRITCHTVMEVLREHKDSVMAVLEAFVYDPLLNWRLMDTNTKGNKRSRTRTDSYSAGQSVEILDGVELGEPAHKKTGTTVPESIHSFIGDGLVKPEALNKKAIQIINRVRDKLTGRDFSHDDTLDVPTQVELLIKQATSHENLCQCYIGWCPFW

Structure (SMILES)	IC50
CC(=O)Nc1nc2c(s1)-c1c(c(-c3cncn3C)nn1-c1ccccc1)CCC2 [Example B-94]	8.36 µM
CC(=O)Nc1nc2c(s1)-c1c(c(-c3c[nH]c(C)n3)nn1CCN(C)C)CCC2 [Example B-119]	1.88 µM
CNc1ccc(-c2nn(-c3cccnc3)c3c2CCCc2nc(NC(C)=O)sc2-3)cn1 [Example B-84]	0.05 µM
CC(=O)Nc1nc2c(s1)-c1c(c(C(=O)Nc3ccccc3)nn1C(C)C)CCC2 [Example E-09]	8.45 µM
CC(=O)Nc1nc2c(s1)-c1c(c(-c3ccc(N)nc3)nn1CCN1CCOCC1)CCC2 [Example B-105]	1.39 µM
CCNc1ccc(-c2nn(-c3ccncc3C)c3c2CCCc2nc(N)sc2-3)cn1 [Example C-07]	2.19 µM
COCC(=O)Nc1nc2c(s1)-c1c(c(-c3ccc(C)nc3)nn1-c1ccccc1C)CCC2 [Example E-13]	0.524 µM
CNC(=O)Nc1nc2c(s1)-c1c(c(-c3ccc(NC)nc3)nn1-c1ccccc1C)CCC2 [Example B-142, 1-Methyl-3-[3-(6-methylamino-pyridin-3-yl)-1-o-tolyl-1,4,5,6-tetrahydro-9-thia-1,2,7-triaza-cyclopent[e]azulen-8-yl]-urea]	0.092 µM
Cc1ccc(-c2nn(-c3ccccc3C)c3c2CCCc2nc(NC(N)=O)sc2-3)cn1 [Example D-04]	0.402 µM
COCCN(C)C(=O)c1nn(C(C)C)c2c1CCCc1nc(NC(C)=O)sc1-2 [Example E-08]	≥ 20 µM
CNc1ccc(-c2nn(CCN3CCOCC3)c3c2CCCc2nc(NC(=O)N(C)C)sc2-3)cn1 [Example B-98]	0.737 µM
CCNc1ccc(-c2nn(-c3ccccc3C)c3c2CCCc2nc(NC(=O)COC)sc2-3)cn1 [Example B-100, N-[3-(6-Ethylamino-pyridin-3-yl)-1-o-tolyl-1,4,5,6-tetrahydro-9-thia-1,2,7-triaza-cyclopenta[e]azulen-8-yl]-2-methoxy-acetamide]	0.286 µM
CCNc1ccc(-c2nn(C(C)COC)c3c2CCCc2nc(NC(C)=O)sc2-3)cn1 (centres unmarked) [Example B-126]	0.084 µM
CNc1ccc(-c2nn(-c3ccccc3C)c3c2CCCc2nc(NC(=O)COC)sc2-3)cn1 [Example B-107, 2-Methoxy-N-[3-(6-methylamino-pyridin-3-yl)-1-o-tolyl-1,4,5,6-tetrahydro-9-thia-1,2,7-triaza-cyclopenta[e]azulen-8-yl]-acetamide]	0.427 µM
COCC(=O)Nc1nc2c(s1)-c1c(c(-c3ccc(N)nc3)nn1-c1ccccc1C)CCC2 [Example B-104, N-[3-(6-Amino-pyridin-3-yl)-1-o-tolyl-1,4,5,6-tetrahydro-9-thia-1,2,7-triaza-cyclopenta[e]azulen-8-yl]-2-methoxy-acetamide]	0.072 µM
CC(=O)Nc1nc2c(s1)-c1c(c(C(=O)NCCCO)nn1C(C)C)CCC2 [Example E-06]	18 µM
Cc1ccccc1-n1nc(-c2ccc(N)nc2)c2c1-c1sc(NC(=O)CN)nc1CCC2 [Example B-102]	0.032 µM
CCNc1ccc(-c2nn(C(C)C)c3c2CCCc2nc(NC(=O)NC)sc2-3)cn1 [Example B-140]	0.182 µM
CC(=O)Nc1nc2c(s1)-c1c(c(C(=O)N(C)CCO)nn1C(C)C)CCC2 [Example E-05]	≥ 20 µM
CCc1ccccc1-n1nc(-c2ccc(NC)nc2)c2c1-c1sc(NC(C)=O)nc1CCC2 [Example B-88, N-[1-(2-Ethyl-phenyl)-3-(6-methylamino-pyridin-3-yl)-1,4,5,6-tetrahydro-9-thia-1,2,7-triaza-cyclopenta[e]azulen-8-yl]-acetamide]	0.269 µM
CCNc1ccc(-c2nn(-c3cccnc3C)c3c2CCCc2nc(NC(=O)N(C)C)sc2-3)cn1 [Example B-141]	0.512 µM
Cc1ccc(-c2nn(-c3ccccc3C)c3c2CCCc2nc(NC(=O)NCCN(C)C)sc2-3)cn1 [Example D-07]	1.28 µM

Structure (SMILES)	IC50
CNC(=O)c1nn(C(C)C)c2c1CCCc1nc(NC(C)=O)sc1-2 [Example E-01]	5.18 µM
COCCNC(=O)c1nn(C(C)C)c2c1CCCc1nc(NC(C)=O)sc1-2 [Example E-07]	11.4 µM
CC(=O)Nc1nc2c(s1)-c1c(c(C(=O)N(C)C)nn1C(C)C)CCC2 [Example E-02]	16 µM
CC(=O)Nc1nc2c(s1)-c1c(c(-c3ccc(C)nc3)nn1-c1cccnc1)CCC2 [Example B-95]	0.074 µM
Cn1ncc2c1-c1sc(-c3cccnc3)nc1CCC2 [Example G-02]	≥ 20 µM
CC(=O)Nc1nc2c(s1)-c1c(c(-c3c[nH]cn3)nn1CCN(C)C)CCC2 [Example B-110]	0.84 µM
CC(=O)Nc1nc2c(s1)-c1c(c(C(=O)Nc3cc[nH]n3)nn1C(C)C)CCC2 [Example E-10]	1.58 µM
CN(C)C(=O)Nc1nc2c(s1)-c1c(c(-c3ccc(N)nc3)nn1-c1ccccc1F)CCC2 [Example B-97]	0.175 µM
CNC(=O)Nc1nc2c(s1)-c1c(c(-c3ccc(C)nc3)nn1-c1ccccc1C)CCC2 [Example D-05]	0.358 µM
CC(=O)Nc1nc2c(s1)-c1c(c(C(=O)NCCO)nn1C(C)C)CCC2 [Example E-04]	4.89 µM
CCNc1ccc(-c2nn(C(C)(C)C)c3c2CCCc2nc(NC(C)=O)sc2-3)cn1 [Example B-123]	1.14 µM
COC(=O)CCNC(=O)c1nn(C(C)C)c2c1CCCc1nc(NC(C)=O)sc1-2 [Example E-11]	6.26 µM
CC(=O)Nc1nc2c(s1)-c1c(c(-c3cncn3C)nn1-c1ccccc1C)CCC2 [Example B-93]	1.11 µM
CCOC(=O)CCCNC(=O)c1nn(C(C)C)c2c1CCCc1nc(NC(C)=O)sc1-2 [Example E-12]	5.41 µM
CC(=O)Nc1nc2c(s1)-c1c(c(C(=O)N(C)CCN(C)C)nn1C(C)C)CCC2 [Example E-03]	4.85 µM
CC(C)n1ncc2c1-c1scnc1CCC2 [Example C-08, 1-Isopropyl-1,4,5,6-tetrahydro-9-thia-1,2,7-triaza-cyclopent[e]azulene]	2.44 µM
CCNc1ccc(-c2nn(-c3ccccc3Br)c3c2CCCc2nc(NC(C)=O)sc2-3)cn1 [Example B-74]	0.168 µM
COCCNC(=O)Nc1nc2c(s1)-c1c(c(-c3ccc(C)nc3)nn1-c1ccccc1C)CCC2 [Example D-06]	1.6 µM
COCCC(=O)Nc1nc2c(s1)-c1c(c(-c3ccc(C)nc3)nn1-c1ccccc1C)CCC2 [Example E-14]	0.698 µM
CCNc1ccc(-c2nn(CCN3CCOCC3)c3c2CCCc2nc(NC(C)=O)sc2-3)cn1 [Example B-124]	0.994 µM
CCNc1ccc(-c2nn(-c3ccccc3C)c3c2CCCc2nc(N)sc2-3)cn1 [Example C-03]	3.34 µM
CNC(=O)Nc1nc2c(s1)-c1c(c(-c3ccc(NC)nc3)nn1C(C)C)CCC2 [Example B-144, 1-[1-Isopropyl-3-(6-methylamino-pyridin-3-yl)-1,4,5,6-tetrahydro-9-thia-1,2,7-triaza-cyclopent[e]azulen-8-yl]-3-methyl-urea]	0.113 µM
